Patent US10294202B2, “Pyrrolidinones as herbicides” (FMC Corporation, priority 2013, dated 2019)

Legend:
[1] = tested on: wheat; assay: Test A pre-/postemergence herbicide test; type: in vivo, Triticum aestivum; conditions: for Wheat plant response rating: Preemergence, visual rating on 0 to 100 scale (0 no effect, 100 complete control)
Outline: (§1)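 Seeds sown in loam soil/sand blend received a preemergence directed soil spray of test chemical in non-phytotoxic solvent with surfactant; postemergence plants (2–10 cm, one- to two-leaf stage) were sprayed with the same formulation. After about 10 days in greenhouse, injury was rated visually versus untreated controls, 0 (no effect) to 100 (complete control).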

[2] = tested on: foxtail, giant; assay: Test C pre-/postemergence herbicide test; type: in vivo, Setaria faberii
Outline: (§2)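 Visual rating, 0 (no effect) to 100 (complete control), versus untreated controls after 13 to 15 days in the greenhouse. Pre: seeds in loam/sand, sprayed at planting. Post: 1- to 4-leaf plants (2 to 18 cm) in peat-based mix. Compounds in non-phytotoxic solvent plus surfactant.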

[3] = tested on: giant foxtail; assay: Test A pre-/postemergence herbicide test; type: in vivo, Setaria faberii; conditions: for Foxtail, Giant plant response rating: Preemergence, visual rating on 0 to 100 scale (0 no effect, 100 complete control)
Outline: as §1

[4] = tested on: corn; assay: Test C pre-/postemergence herbicide test; type: in vivo, Zea mays
Outline: as §2

[5] = tested on: ragweed; assay: Test C pre-/postemergence herbicide test; type: in vivo, Ambrosia elatior
Outline: as §2

[6] = tested on: corn; assay: Test A pre-/postemergence herbicide test; type: in vivo, Zea mays; conditions: for Corn plant response rating: Preemergence, visual rating on 0 to 100 scale (0 no effect, 100 complete control)
Outline: as §1

[7] = tested on: blackgrass; assay: Test C pre-/postemergence herbicide test; type: in vivo, Alopecurus myosuroides
Outline: as §2

[8] = tested on: johnsongrass; assay: Test C pre-/postemergence herbicide test; type: in vivo, Sorghum halepense
Outline: as §2

[9] = tested on: galium; assay: Test C pre-/postemergence herbicide test; type: in vivo, Galium aparine; conditions: Preemergence; for Galium plant response rating: 31 g ai/ha
Outline: as §2

[10] = tested on: sedge, umbrella; assay: Test B flooded paddy test; type: in vivo, Cyperus difformis; conditions: 250 g ai/ha, Flood; scale of 0 to 100 where 0 is no effect and 100 is complete control
Outline: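 Plants grown to 2-leaf stage; pots flooded 3 cm above soil and compound applied directly into paddy water, depth held throughout. Visual rating against untreated controls after 13 to 15 days in greenhouse, 0 (no effect) to 100 (complete control).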

[11] = Postemergence, 125 g ai/ha, 0 to 100 scale, 0 no effect, 100 complete control
[12] = Postemergence, 500 g ai/ha, 0 to 100 scale (0 no effect, 100 complete control)
[13] = preemergence, 500 g ai/ha, 0 to 100 scale
[14] = Postemergence, 16 g ai/ha, scale 0 to 100 (0 no effect, 100 complete control)
[15] = Postemergence, 31 g ai/ha, scale 0 (no effect) to 100 (complete control)
[16] = Postemergence, 62 g ai/ha, scale 0 to 100 (0 no effect, 100 complete control)
[17] = Postemergence, 125 g ai/ha, scale 0 to 100 (0 no effect, 100 complete control)
[18] = Preemergence, 62 g ai/ha, scale 0 to 100
[19] = Preemergence, 125 g ai/ha, scale 0 to 100 (0 no effect, 100 complete control)
[20] = Preemergence, 16 g ai/ha, scale 0 to 100
[21] = Preemergence, 31 g ai/ha, scale 0 to 100 (0 no effect, 100 complete control)
[22] = 125 g ai/ha, scale 0 to 100 (0 no effect, 100 complete control)
[23] = scale 0 to 100 (0 no effect, 100 complete control)
[24] = Postemergence, 250 g ai/ha, scale 0 to 100 (0 no effect, 100 complete control)
[25] = Preemergence, 250 g ai/ha, scale 0 to 100 (0 no effect, 100 complete control)

O=C1NCC(c2cc(F)c(F)c(F)c2)C1C(=O)Nc1cccc(F)c1F (stereo not drawn) [Compound 48]
Plant response rating, Wheat [1, 11]: 20
Plant response rating, Wheat [1, 12]: 40
Wheat plant response rating ([1]; 125 g ai/ha): 0
Plant response rating, Wheat [1, 13]: 50
Plant response rating, Foxtail, Giant [2, 14]: 0
Plant response rating, Foxtail, Giant [2, 15]: 5
Plant response rating, Foxtail, Giant [2, 16]: 20
Plant response rating, Foxtail, Giant [2, 17]: 40
Plant response rating, Foxtail, Giant [2, 18]: 85
Plant response rating, Foxtail, Giant [2, 19]: 95
Plant response rating, Foxtail, Giant [2, 20]: 40
Foxtail, Giant plant response rating [2, 21]: 80
Plant response rating, Foxtail, Giant [3, 11]: 80
Plant response rating, Foxtail, Giant [3, 12]: 80
Foxtail, Giant plant response rating ([3]; 125 g ai/ha): 80
Plant response rating, Foxtail, Giant [3, 13]: 90
Plant response rating, Corn [4, 14]: 0
Plant response rating, Corn [4, 15]: 5
Plant response rating, Corn [4, 16]: 5
Plant response rating, Corn [4, 17]: 5
Plant response rating, Corn [4, 18]: 20
Plant response rating, Corn [4, 19]: 20
Plant response rating, Corn [4, 20]: 0
Corn plant response rating [4, 21]: 0
Plant response rating, Ragweed [5, 14]: 0
Plant response rating, Ragweed [5, 15]: 5
Plant response rating, Ragweed [5, 16]: 5
Plant response rating, Ragweed [5, 17]: 35
Plant response rating, Ragweed [5, 18]: 10
Plant response rating, Ragweed [5, 19]: 10
Plant response rating, Ragweed [5, 20]: 0
Plant response rating, Corn [6, 11]: 0
Plant response rating, Corn [6, 12]: 50
Corn plant response rating ([6]; 125 g ai/ha): 0
Plant response rating, Corn [6, 13]: 20
Plant response rating, Blackgrass [7, 14]: 0
Plant response rating, Blackgrass [7, 15]: 0
Plant response rating, Blackgrass [7, 16]: 0
Plant response rating, Blackgrass [7, 17]: 0
Plant response rating, Blackgrass [7, 18]: 20
Plant response rating, Blackgrass [7, 19]: 50
Plant response rating, Blackgrass [7, 20]: 0
Blackgrass plant response rating [7, 21]: 0
Plant response rating, Johnsongrass [8, 14]: 0
Plant response rating, Johnsongrass [8, 15]: 0
Plant response rating, Johnsongrass [8, 16]: 0
Plant response rating, Johnsongrass [8, 17]: 0
Plant response rating, Johnsongrass [8, 18]: 10
Plant response rating, Johnsongrass [8, 19]: 20
Plant response rating, Johnsongrass [8, 20]: 0
Plant response rating, Galium ([9]; 62 g ai/ha, scale 0 to 100): 30
Plant response rating, Galium [9, 22]: 60
Plant response rating, Galium ([9]; 16 g ai/ha, scale 0 to 100): 0
Galium plant response rating [9, 23]: 0
Plant response rating, Sedge, Umbrella [10]: 60

O=C1NCC(c2cc(F)c(F)cc2F)C1C(=O)Nc1cccc(F)c1F (stereo not drawn) [Compound 50]
Plant response rating, Wheat [1, 11]: 0
Plant response rating, Wheat [1, 12]: 0
Wheat plant response rating ([1]; 125 g ai/ha): 0
Plant response rating, Wheat [1, 13]: 0
Plant response rating, Foxtail, Giant [2, 15]: 0
Plant response rating, Foxtail, Giant [2, 16]: 5
Plant response rating, Foxtail, Giant [2, 17]: 5
Plant response rating, Foxtail, Giant [2, 24]: 10
Plant response rating, Foxtail, Giant [3, 11]: 80
Plant response rating, Foxtail, Giant [3, 12]: 80
Foxtail, Giant plant response rating ([3]; 125 g ai/ha): 90
Plant response rating, Foxtail, Giant [3, 13]: 90
Plant response rating, Corn [4, 15]: 0
Plant response rating, Corn [4, 16]: 0
Plant response rating, Corn [4, 17]: 5
Plant response rating, Corn [4, 24]: 5
Plant response rating, Ragweed [5, 15]: 0
Plant response rating, Ragweed [5, 16]: 0
Plant response rating, Ragweed [5, 17]: 0
Plant response rating, Ragweed [5, 24]: 10
Plant response rating, Corn [6, 11]: 0
Plant response rating, Corn [6, 12]: 0
Corn plant response rating ([6]; 125 g ai/ha): 0
Plant response rating, Corn [6, 13]: 0
Plant response rating, Blackgrass [7, 15]: 0
Plant response rating, Blackgrass [7, 16]: 0
Plant response rating, Blackgrass [7, 17]: 0
Plant response rating, Blackgrass [7, 24]: 0
Plant response rating, Johnsongrass [8, 15]: 0
Plant response rating, Johnsongrass [8, 16]: 0
Plant response rating, Johnsongrass [8, 17]: 0
Plant response rating, Johnsongrass [8, 24]: 10
Plant response rating, Sedge, Umbrella [10]: 55

O=C1NCC(c2ccc(Cl)c(F)c2)C1C(=O)Nc1cccc(F)c1F (stereo not drawn) [Compound 52]
Plant response rating, Wheat [1, 11]: 0
Plant response rating, Wheat [1, 12]: 30
Wheat plant response rating ([1]; 125 g ai/ha): 0
Plant response rating, Wheat [1, 13]: 0
Plant response rating, Foxtail, Giant [2, 15]: 0
Plant response rating, Foxtail, Giant [2, 16]: 0
Plant response rating, Foxtail, Giant [2, 17]: 0
Plant response rating, Foxtail, Giant [2, 24]: 25
Plant response rating, Foxtail, Giant [2, 18]: 80
Plant response rating, Foxtail, Giant [2, 19]: 80
Foxtail, Giant plant response rating [2, 21]: 55
Plant response rating, Foxtail, Giant [2, 25]: 85
Plant response rating, Foxtail, Giant [3, 11]: 80
Plant response rating, Foxtail, Giant [3, 12]: 80
Foxtail, Giant plant response rating ([3]; 125 g ai/ha): 80
Plant response rating, Foxtail, Giant [3, 13]: 90
Plant response rating, Corn [4, 15]: 0
Plant response rating, Corn [4, 16]: 0
Plant response rating, Corn [4, 17]: 5
Plant response rating, Corn [4, 24]: 5
Plant response rating, Corn [4, 18]: 10
Plant response rating, Corn [4, 19]: 10
Corn plant response rating [4, 21]: 10
Plant response rating, Corn [4, 25]: 10
Plant response rating, Ragweed [5, 15]: 10
Plant response rating, Ragweed [5, 16]: 10
Plant response rating, Ragweed [5, 17]: 50
Plant response rating, Ragweed [5, 24]: 55
Plant response rating, Ragweed [5, 18]: 0
Plant response rating, Ragweed [5, 19]: 0
Plant response rating, Corn [6, 11]: 0
Plant response rating, Corn [6, 12]: 30
Corn plant response rating ([6]; 125 g ai/ha): 0
Plant response rating, Corn [6, 13]: 0
Plant response rating, Blackgrass [7, 15]: 0
Plant response rating, Blackgrass [7, 16]: 0
Plant response rating, Blackgrass [7, 17]: 0
Plant response rating, Blackgrass [7, 24]: 0
Plant response rating, Blackgrass [7, 18]: 0
Plant response rating, Blackgrass [7, 19]: 0
Blackgrass plant response rating [7, 21]: 0
Plant response rating, Blackgrass [7, 25]: 0
Plant response rating, Johnsongrass [8, 15]: 0
Plant response rating, Johnsongrass [8, 16]: 0
Plant response rating, Johnsongrass [8, 17]: 0
Plant response rating, Johnsongrass [8, 24]: 0
Plant response rating, Johnsongrass [8, 18]: 0
Plant response rating, Johnsongrass [8, 19]: 10
Plant response rating, Galium ([9]; 62 g ai/ha, scale 0 to 100): 0
Plant response rating, Galium [9, 22]: 90
Galium plant response rating [9, 23]: 0
Plant response rating, Galium ([9]; 250 g ai/ha, scale 0 to 100 (0 no effect, 100 complete control)): 90
Plant response rating, Sedge, Umbrella [10]: 85
